According to ChEMBL document CHEMBL1201862, “PubChem BioAssay data set” (2004):
Activity calls are given as the source filed them.

Legend:
[1] = cells
[2] = tested on: Vero; assay: cells; assay type: functional; settings: Chlorocebus sabaeus
[3] = Luminescence Cell-Based Dose Response HTS to Identify Activators of Luciferase Translation or Activity in H4 […] Cells. [Related pubchem assays: 1829 (Project Summary), 1814 (Primary HTS)]; assay type: functional
[4] = viability of uninfected HEp-2 cells – cell-based, HTS, cytotoxicity control for RSV inhibitor project, dose response (AID 2410); assay type: functional; settings: human respiratory syncytial virus
[5] = tested on: H4; assay: Luminescence Cell-Based Dose Response HTS to Identify Activators of 5'UTR Stem-Loop Driven Prion Protein mRNA Translation in H4 Neuroglioblastoma Cells. [Related pubchem assays: 1829 (Project Summary), 1814 (Primary HTS)]; assay type: functional; settings: Homo sapiens
[6] = Luminescence Cell-Based Dose Confirmation HTS to Identify Activators of 5'UTR Stem-Loop Driven Alpha-Synuclein mRNA Translation in H4 Neuroglioblastoma Cells. [Related pubchem assays: 1829 (Project Summary), 1814 (Primary HTS)]; assay type: functional
[7] = tested on: Vero; assay: cells; assay type: functional, cell-based; settings: Chlorocebus sabaeus
[8] = viability loss in human Jurkat cells – cell-based, luminescence, cytotoxicity control for P. falciparum gametocyte viability project, dose response (AID 1117277); assay type: functional;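 also: potency reflects loss of cellular ATP meaning fewer viable cells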
[9] = viability inhibitors of stage V gametocytes – luminescence, dose response (AID 1117278); assay type: functional, cell-based;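 also: gametocytes exposed to compound for 24 hours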
[10] = target: Ion channel NompC (Danio rerio, UniProt Q7T1G6); assay: Fluorescence counterscreen assay for TRPML3 agonists: dose response cell-based high-throughput screening assay to identify agonists of the transient receptor potential channel N1 (TRPN1). [Related pubchem assays: 1526, 1424, 1448 ]; assay type: functional
[11] = target: T1, Mucolipin-3 (Homo sapiens, UniProt Q8TDD5); assay: Dose response cell-based high-throughput screening assay for agonists of the transient receptor potential channel ML3 (TRPML3). [Related pubchem assays: 1526, 1424, 1448 ]; assay type: functional
T1 sequence (Q8TDD5 whole entry): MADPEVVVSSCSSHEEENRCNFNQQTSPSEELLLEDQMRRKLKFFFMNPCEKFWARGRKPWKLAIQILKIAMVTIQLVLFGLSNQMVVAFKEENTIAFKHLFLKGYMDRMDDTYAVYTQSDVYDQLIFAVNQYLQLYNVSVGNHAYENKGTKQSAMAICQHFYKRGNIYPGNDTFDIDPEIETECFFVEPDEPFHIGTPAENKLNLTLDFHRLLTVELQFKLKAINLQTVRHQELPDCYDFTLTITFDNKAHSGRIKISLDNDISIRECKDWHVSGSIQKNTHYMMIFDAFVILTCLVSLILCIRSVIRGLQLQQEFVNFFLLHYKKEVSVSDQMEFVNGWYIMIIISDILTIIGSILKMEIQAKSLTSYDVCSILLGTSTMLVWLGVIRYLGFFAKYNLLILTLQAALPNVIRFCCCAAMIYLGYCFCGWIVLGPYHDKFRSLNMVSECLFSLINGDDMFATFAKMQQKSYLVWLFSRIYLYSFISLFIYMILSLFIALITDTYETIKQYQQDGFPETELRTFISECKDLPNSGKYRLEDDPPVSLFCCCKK

[12] = target: T2, Estrogen receptor (Homo sapiens, UniProt P03372);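 also: potency for inhibiting coactivator peptide recruitment to the receptor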
T2 sequence (P03372 whole entry): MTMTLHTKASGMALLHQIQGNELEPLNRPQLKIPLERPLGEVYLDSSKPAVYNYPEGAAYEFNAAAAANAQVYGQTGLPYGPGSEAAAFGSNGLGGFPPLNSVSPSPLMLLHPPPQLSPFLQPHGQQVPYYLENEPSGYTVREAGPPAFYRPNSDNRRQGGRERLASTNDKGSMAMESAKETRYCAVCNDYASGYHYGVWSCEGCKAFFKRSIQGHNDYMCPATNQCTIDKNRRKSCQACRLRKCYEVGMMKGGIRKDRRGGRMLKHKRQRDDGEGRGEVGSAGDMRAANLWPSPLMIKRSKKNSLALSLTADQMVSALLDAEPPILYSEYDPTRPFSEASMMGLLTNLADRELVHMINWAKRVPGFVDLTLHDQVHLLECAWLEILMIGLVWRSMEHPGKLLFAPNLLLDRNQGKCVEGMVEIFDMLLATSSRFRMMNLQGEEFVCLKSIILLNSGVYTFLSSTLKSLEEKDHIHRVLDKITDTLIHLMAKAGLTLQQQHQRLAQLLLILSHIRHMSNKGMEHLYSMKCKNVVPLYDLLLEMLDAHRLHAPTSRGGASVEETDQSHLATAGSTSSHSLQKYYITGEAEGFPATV

[13] = viability of HCT116 lacking mutant beta-catenin – cell-based, human colon tumor, dose response (AID 1045); assay type: functional;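 also: HCT116 colon tumor cells with beta catenin knocked out; cells exposed to compound for 60 hours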
[14] = viability of PTEN-deleted HCT116 cells – cell-based, HCT116 PTEN knockout, dose response (AID 1047); assay type: functional;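 also: HCT116 colon tumor cells with PTEN knocked out; cells exposed to compound for 60 hours before readout; potency for loss of cell viability measured by luminescence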
[15] = target: T3, Leucine aminopeptidase (Plasmodium falciparum 3D7, UniProt Q8IL11); assay: P. falciparum M17LAP inhibitors, primary screen, biochemical, fluorogenic H-Leu-NHMec substrate, 1536-well (AID 1619); assay type: functional
T3 sequence (Q8IL11 whole entry): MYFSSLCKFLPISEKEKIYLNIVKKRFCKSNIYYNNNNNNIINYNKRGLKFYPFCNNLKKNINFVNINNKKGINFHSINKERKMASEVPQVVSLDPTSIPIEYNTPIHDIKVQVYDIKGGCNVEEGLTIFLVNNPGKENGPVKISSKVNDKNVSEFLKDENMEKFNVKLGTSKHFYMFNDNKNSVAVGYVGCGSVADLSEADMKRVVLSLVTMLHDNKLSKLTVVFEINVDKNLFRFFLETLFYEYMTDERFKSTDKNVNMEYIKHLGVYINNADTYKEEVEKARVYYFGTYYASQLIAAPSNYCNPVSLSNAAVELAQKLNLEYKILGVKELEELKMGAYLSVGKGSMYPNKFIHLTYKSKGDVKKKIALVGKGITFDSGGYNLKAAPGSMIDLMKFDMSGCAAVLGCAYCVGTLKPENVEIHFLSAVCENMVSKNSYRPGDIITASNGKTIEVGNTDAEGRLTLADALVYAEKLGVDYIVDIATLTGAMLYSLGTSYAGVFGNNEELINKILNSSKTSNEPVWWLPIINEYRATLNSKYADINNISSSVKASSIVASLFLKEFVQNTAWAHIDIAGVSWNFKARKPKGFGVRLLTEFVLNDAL

[16] = target: T4, Zinc finger protein mex-5 (Caenorhabditis elegans, UniProt Q9XUB2); assay: potency of MEX-5 RNA-binding blockers – biochemical, C. elegans, fluorescence polarization, dose response (AID 1960)
T4 sequence (Q9XUB2 whole entry): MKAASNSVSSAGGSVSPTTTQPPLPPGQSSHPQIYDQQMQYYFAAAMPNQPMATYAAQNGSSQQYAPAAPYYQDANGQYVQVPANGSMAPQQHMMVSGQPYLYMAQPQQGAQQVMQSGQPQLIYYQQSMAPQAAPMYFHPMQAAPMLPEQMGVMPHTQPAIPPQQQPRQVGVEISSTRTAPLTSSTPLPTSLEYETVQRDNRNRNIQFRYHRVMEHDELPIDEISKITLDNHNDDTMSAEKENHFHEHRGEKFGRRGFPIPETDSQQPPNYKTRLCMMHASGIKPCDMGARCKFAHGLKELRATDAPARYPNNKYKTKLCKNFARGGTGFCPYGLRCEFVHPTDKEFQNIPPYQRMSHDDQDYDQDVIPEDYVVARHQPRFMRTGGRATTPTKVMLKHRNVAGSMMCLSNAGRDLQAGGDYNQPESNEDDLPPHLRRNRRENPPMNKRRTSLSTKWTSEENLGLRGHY

[17] = target: T5, RNA-binding protein pos-1 (Caenorhabditis elegans, UniProt G5EF15); assay: disruptors of C. elegans POS-1 RNA interaction – biochemical, fluorescence polarization, dose response (AID 1964);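 also: purified POS-1 fused to maltose binding protein made in E. coli; potency of compounds blocking POS-1 binding to fluorescent RNA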
T5 sequence (G5EF15 whole entry): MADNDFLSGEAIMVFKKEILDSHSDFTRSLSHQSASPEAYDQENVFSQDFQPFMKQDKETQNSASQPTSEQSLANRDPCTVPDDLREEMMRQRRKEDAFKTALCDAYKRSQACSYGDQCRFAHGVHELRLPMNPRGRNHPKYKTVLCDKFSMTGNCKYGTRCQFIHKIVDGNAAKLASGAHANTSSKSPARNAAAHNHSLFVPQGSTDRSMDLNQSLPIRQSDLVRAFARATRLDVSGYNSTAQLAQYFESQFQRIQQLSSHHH

[18] = target: T6, Mannose-6-phosphate isomerase (Homo sapiens, UniProt P34949); assay: MPI enzyme activity inhibition – biochemical, fluorescence intensity, coupled assay, primary screen (AID 1209)
T6 sequence (P34949 whole entry): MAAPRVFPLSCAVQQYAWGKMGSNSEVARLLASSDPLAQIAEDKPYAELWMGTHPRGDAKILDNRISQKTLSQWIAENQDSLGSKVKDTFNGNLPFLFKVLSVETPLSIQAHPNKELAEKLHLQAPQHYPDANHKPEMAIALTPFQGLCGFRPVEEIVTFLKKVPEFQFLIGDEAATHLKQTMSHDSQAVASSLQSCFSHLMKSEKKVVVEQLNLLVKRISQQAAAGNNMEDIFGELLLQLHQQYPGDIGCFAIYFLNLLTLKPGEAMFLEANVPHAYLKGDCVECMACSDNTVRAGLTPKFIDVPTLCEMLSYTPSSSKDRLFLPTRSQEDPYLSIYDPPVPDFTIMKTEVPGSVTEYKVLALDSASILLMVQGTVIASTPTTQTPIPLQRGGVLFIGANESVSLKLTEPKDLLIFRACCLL

[19] = target: T7, Calpain-2 catalytic subunit (Sus scrofa, UniProt P43367); assay: m-calpain protease blockers, concentration series – biochemical, fluorogenic peptide substrate, dose response (AID 1420); assay type: functional
T7 sequence (P43367 whole entry): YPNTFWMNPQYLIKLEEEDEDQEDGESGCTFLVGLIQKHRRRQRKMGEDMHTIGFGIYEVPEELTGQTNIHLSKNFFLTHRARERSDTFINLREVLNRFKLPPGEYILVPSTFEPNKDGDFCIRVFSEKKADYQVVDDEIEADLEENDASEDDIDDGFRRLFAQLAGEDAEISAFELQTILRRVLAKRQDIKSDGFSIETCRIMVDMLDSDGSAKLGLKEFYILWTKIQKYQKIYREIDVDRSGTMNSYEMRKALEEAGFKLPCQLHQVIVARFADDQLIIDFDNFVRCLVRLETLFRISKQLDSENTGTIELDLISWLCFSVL

[20] = P. falciparum Dd2 growth inhibitors, dose response, SYBR Green, cherry-picked samples (AID 1159567); assay type: functional, cell-based
[21] = growth inhibition of PfATP4-mutant resistant parasites – NITD609-resistant line, SYBR Green, dry powder, dose response (AID 1159571); assay type: functional, cell-based;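 also: parasites synchronized at ring stage by sorbitol before testing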
[22] = Dd2 malaria parasite growth inhibition potency – SYBR Green, dry powder samples, dose response (AID 1159566); assay type: functional, cell-based;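 also: potency for growth inhibition with lower SYBR green DNA signal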
[23] = toxicity to human HepG2 hepatoma cells – cell-based, plate reader, dry powder samples, cytotoxicity control, dose response (AID 1159569); assay type: functional;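 also: inhibitor potency with signal falling toward the positive control level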
[24] = growth inhibition of yeast DHODH-expressing 3D7 parasites – SYBR Green, dry powder samples, dose response (AID 1159570); assay type: functional, cell-based;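 also: parasite growth measured after 72 hours of compound exposure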

Ion channel NompC, sequence (Q7T1G6 whole entry): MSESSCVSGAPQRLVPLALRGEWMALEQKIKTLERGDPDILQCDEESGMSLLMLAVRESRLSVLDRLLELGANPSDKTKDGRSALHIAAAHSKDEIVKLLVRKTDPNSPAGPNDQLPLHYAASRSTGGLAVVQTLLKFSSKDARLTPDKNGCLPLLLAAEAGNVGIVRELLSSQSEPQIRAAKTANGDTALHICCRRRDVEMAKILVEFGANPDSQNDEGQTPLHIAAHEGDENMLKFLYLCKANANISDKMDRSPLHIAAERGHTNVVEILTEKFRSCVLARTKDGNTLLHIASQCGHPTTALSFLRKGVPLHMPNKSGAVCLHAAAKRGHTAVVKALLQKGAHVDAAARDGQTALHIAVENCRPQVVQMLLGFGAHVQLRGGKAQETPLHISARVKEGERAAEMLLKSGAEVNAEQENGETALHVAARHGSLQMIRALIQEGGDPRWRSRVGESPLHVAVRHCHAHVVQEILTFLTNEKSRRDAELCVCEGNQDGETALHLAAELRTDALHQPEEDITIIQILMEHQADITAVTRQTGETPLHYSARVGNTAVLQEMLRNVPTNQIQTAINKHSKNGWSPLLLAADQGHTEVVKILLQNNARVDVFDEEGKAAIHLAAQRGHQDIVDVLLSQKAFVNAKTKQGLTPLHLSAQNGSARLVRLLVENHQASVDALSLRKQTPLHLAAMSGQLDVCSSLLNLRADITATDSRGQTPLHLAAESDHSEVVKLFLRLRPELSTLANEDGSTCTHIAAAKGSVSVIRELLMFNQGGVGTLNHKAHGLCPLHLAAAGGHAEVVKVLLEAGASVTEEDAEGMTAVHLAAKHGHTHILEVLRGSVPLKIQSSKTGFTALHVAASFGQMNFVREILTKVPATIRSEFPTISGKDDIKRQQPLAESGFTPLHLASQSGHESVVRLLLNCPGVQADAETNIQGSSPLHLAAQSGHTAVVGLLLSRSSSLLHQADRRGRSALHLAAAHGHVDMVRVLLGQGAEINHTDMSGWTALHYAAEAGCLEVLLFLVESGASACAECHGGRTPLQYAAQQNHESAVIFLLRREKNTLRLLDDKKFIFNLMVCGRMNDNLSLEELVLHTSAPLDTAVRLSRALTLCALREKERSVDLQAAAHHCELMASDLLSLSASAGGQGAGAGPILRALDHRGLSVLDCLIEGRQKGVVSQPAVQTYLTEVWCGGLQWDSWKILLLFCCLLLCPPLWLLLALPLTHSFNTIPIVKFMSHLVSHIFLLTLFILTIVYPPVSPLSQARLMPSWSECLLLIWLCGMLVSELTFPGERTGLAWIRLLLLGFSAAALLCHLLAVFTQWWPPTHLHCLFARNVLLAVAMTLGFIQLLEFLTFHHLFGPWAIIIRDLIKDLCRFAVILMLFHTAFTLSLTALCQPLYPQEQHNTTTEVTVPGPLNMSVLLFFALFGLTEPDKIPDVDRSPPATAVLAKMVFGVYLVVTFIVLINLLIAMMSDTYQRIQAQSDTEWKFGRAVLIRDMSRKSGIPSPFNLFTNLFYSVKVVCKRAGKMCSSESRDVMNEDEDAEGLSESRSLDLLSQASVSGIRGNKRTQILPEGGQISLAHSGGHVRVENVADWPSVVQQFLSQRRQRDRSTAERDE

Cn1c(C(=O)NCc2cccs2)cc2oc3ccccc3c21
IC50 [1]: 18.4 µM (active) | CC50 [2]: > 25 µM (active) | EC50 [3]: 2.92 µM (active) | CC50 [4]: 3.9 µM (active) | EC50 [5]: > 120 µM (not active) | EC50 [6]: > 120 µM (not active) | IC50 [7]: 1.32 µM (active)

O=C(CSc1nnc(-c2ccc(F)cc2)o1)NC1CCCCC1
IC50 [8]: > 83.3 µM (inactive) | IC50 [9]: > 109 µM (inactive)

O=C(c1ccccc1F)N(NC(=O)C(O)(c1ccccc1)c1ccccc1)c1ccccc1
EC50 [10]: > 29.9 µM (not active) | EC50 [11]: 10.4 µM (not active)

Cc1nn(Cc2ccccc2)c(C)c1NC(=O)CSc1nnc(-c2cc(Cl)ccc2O)n1C
IC50 [12]: > 50 µM (not active)

O=C(N=Nc1c(O)[nH]c2ccc([N+](=O)[O-])cc12)c1ccccc1[N+](=O)[O-]
IC50 [1]: 26.2 µM (active)

Cc1cccc(N2CCN(c3nc4ccccc4n4cnnc34)CC2)c1C
IC50 [12]: 38.8 µM (not active) | EC50 [13]: 25.4 µM (active) | EC50 [14]: 23.4 µM (active)

C=CCCC(=O)Nc1ccc(Br)cn1
IC50 [8]: > 83.3 µM (inactive) | IC50 [9]: > 109 µM (inactive)

CCN(c1ccccc1)S(=O)(=O)c1ccc(Cl)c(NC(=O)CSc2n[nH]c(N)n2)c1
IC50 [1]: 7.78 µM (active) | CC50 [4]: 44.2 µM (active)

O=C1C2CC=C(Cl)CC2C(=O)N1CCCCCCN1C(=O)C2CC=C(Cl)CC2C1=O (stereo unspecified)
IC50 [15]: 37.2 µM (active) | IC50 [12]: 24.7 µM (active) | EC50 [16]: 12.2 µM (active) | EC50 [17]: 14.4 µM (active)

N#C/C(=C\c1cccnc1)C(=O)Nc1ccccc1
IC50 [18]: > 50 µM (not active)

O=S1(=O)OCCC(c2ccccc2)N1Cc1ccccc1 (stereo unspecified)
IC50 [8]: > 83.3 µM (inactive) | IC50 [9]: > 109 µM (inactive)

Cc1cc(C(C)(C)C)oc1C(=O)N(CC(=O)NC1CCCC1)Cc1ccccc1Cl
EC50 [10]: > 29.9 µM (not active) | EC50 [11]: > 29.9 µM (not active) | IC50 [19]: 2.28 µM (not active)

CCc1ccc(N2C(=O)CC(Cn3nc(C)cc3C)C2=O)cc1 (stereo unspecified)
IC50 [8]: > 83.3 µM (inactive) | IC50 [9]: > 109 µM (inactive)

CC(C)Oc1ccc(/C=N/NC(=O)C(CSCc2ccccc2)NC(=O)c2ccc([N+](=O)[O-])cc2)cc1 (stereo unspecified)
EC50 [10]: > 29.9 µM (not active) | EC50 [11]: 0.342 µM (active)

CC1(C)CC(=O)C(/C=N/c2ccc3[nH]ncc3c2)=C(O)C1
IC50 [18]: > 50 µM (not active)

Cc1ccc(/C=N/n2c(S)nnc2-c2ccncc2)cc1
IC50 [18]: 18.3 µM (active)

CO[C@@H]1CN(C)C(=O)c2cc(NC(=O)c3ccccc3F)ccc2OC[C@H](C)N(C(=O)c2ccccc2F)C[C@@H]1C
AC50 [20]: 2.47 µM (active) | AC50 [21]: 1.64 µM (active) | AC50 [22]: 1.1 µM (active) | AC50 [23]: > 100 µM (inactive) | AC50 [24]: 2.87 µM (active)

O=S(=O)(c1ccccc1)N1C[C@@H]2N[C@H](C1)[C@H]2c1ccc(-c2ccc(F)cc2)cc1
AC50 [20]: 1.54 µM (active) | AC50 [21]: 1.85 µM (active) | AC50 [22]: 1.47 µM (active) | AC50 [23]: 14.3 µM (active) | AC50 [24]: 1.27 µM (active)
